Results on two compounds are retold here after BindingDB's records for doi:10.1016/j.ejmech.2018.10.033 (Key Laboratory of Molecular Pharmacology and Drug …, 2019).

The nature of series [1]: Reversal of P-gp-mediated drug resistance in human KBV cells assessed as potentiation of paclitaxel-induced cytotoxicity by measuring paclitaxel IC50 at 5 uM after 24 hrs by MTT assay (Rvb = 3837.57 uM).
The nature of series [2]: Reversal of P-gp-mediated drug resistance in human KBV cells assessed as potentiation of paclitaxel-induced cytotoxicity by measuring paclitaxel IC50 at 5 uM after 48 hrs by MTT assay (Rvb = 1396.57 uM).
A short description of series [3]: Reversal of P-gp-mediated drug resistance in human KBV cells assessed as potentiation of paclitaxel-induced cytotoxicity by measuring paclitaxel IC50 at 5 uM after 72 hrs by MTT assay (Rvb = 398.34 +/- 0.58 uM).
The nature of series [4]: Reversal of P-gp-mediated drug resistance in human KBV cells assessed as potentiation of paclitaxel-induced cytotoxicity by measuring paclitaxel IC50 at 10 uM after 24 hrs by MTT assay (Rvb = 3837.57 uM).
Series [5] is described as follows: Reversal of P-gp-mediated drug resistance in human KBV cells assessed as potentiation of paclitaxel-induced cytotoxicity by measuring paclitaxel IC50 at 10 uM after 72 hrs by MTT assay (Rvb = 398.34 +/- 0.58 uM).
Series [6] can be described thus: Reversal of P-gp-mediated drug resistance in human KBV cells assessed as potentiation of paclitaxel-induced cytotoxicity by measuring paclitaxel IC50 at 10 uM after 48 hrs by MTT assay (Rvb = 1396.57 uM).
Series [7] can be described thus: Reversal of P-gp-mediated drug resistance in human KBV cells assessed as potentiation of paclitaxel-induced cytotoxicity by measuring paclitaxel IC50 at 10 uM.

`CN(C)CCCOC(=O)[C@]12CCC(C)(C)C[C@H]1C1=CC[C@@H]3[C@@]4(C)Cc5nccnc5[C@@](C)(CO)[C@@H]4CC[C@@]3(C)[C@]1(C)CC2`: the half-maximal inhibitory concentration (IC50) in series [1] was 49.8 nM; in series [2], 21.2 nM; in series [3] it was 12.3 nM; in series [4], 35 nM; in series [5] it was 1.59 nM; in series [6] it was 17.2 nM.

For the compound `CC1(C)CC[C@]2(C(=O)OCc3ccccc3)CC[C@]3(C)C(=CC[C@@H]4[C@@]5(C)Cc6nccnc6[C@@](C)(CO)[C@@H]5CC[C@]43C)[C@@H]2C1`, the IC50 in series [7] worked out at 2.4 nM.
